# Reference: patent US10858628B2, “Methods and compositions for inducing hematopoietic cell differentiation” (Fate Therapeutics, Inc., priority 2015, dated 2020)
# Assays:
# Assay type in all cases: cell-based, human
# [1] = system: hiPSCs; test: hiPSC monolayer hematopoietic differentiation (iCD34 platform), CD34+ HE population at D10 by flow cytometry
# Method: The iCD34 platform is an optimized system for hematopoietic lineage cells differentiation. To initiate differentiation towards the hematopoietic lineage, hiPSCs were seeded as a monolayer on Day (D) 0 in the maintenance medium and allowed to adhere and expand for about 24 hours. At this point, the maintenance medium was removed and replaced with base medium without maintenance factors at D1. Hematopoietic differentiation was initiated at around D2 by switching the culture medium to iCD34−A (see FIG. 1). […] The monolayers were maintained until around D5-D6 at which point they were dissociated into single cells and seeded as a low density monolayer in iCD34−C medium until differentiation around D10. Low oxygen tension (2-10% O2) was maintained from the onset of hematopoietic differentiation around D2 up until around D10 of differentiation.
# During the culture process, the directed differentiation towards the hematopoietic lineage was monitored by the dissociation of the monolayers into single cells and analysis for the surface marker expression of CD34, and optionally, CD43, CD45, CXCR4, CD73 and/or CD93 (FIG. 4A). At around D8 of differentiation, the appearance of a cell population representing HE was observed by the cell surface expression signature CD34+. CD43−CXCR4−CD73− was also observed in the CD34+ cells. The CD34+ population was maintained until around D10 (FIG. 4A). At D10, which time point can be shortened to about D9 or extended until about D12, the cells were dissociated into single cells and the CD34+ HE population was sorted by FACS using a BD FACS Aria for further analysis and functional assessment.
# To optimize the efficient generation of HE from hiPSCs after around 10 days of differentiation several parameters were examined. The optimal plating density of the monolayers at D0 of differentiation was assessed by plating increasing numbers of hiPSCs from 7.5×10^4/well to 1.5×10^5/well on Matrigel™-coated 6 well culture dishes and then analyzing the generation of the CD34+ HE population at about D10. […] Despite this decrease, the highest conversion rate of hiPSCs to HE after 10 days of monolayer differentiation was at the highest plating density tested at 1.5×10^5/well (FIG. 4C).
# The effect of the concentration of BMP4 modulation during the initial stages of hematopoietic differentiation on the generation of HE was assessed by treating the cultures with increasing concentrations of BMP4 ranging from 0 ng/ml to 30 ng/ml from about D2 to about D6 of differentiation. The generation of HE at D10 was assessed by the detection of the CD34+ HE population.
# The Wnt pathway activator CHIR99021 is responsible for the induction of the definitive hematopoietic program from hiPSCs. The effect of the modulation of CHIR during the induction phase of the hematopoietic differentiation protocol was assessed by treating the cultures with increasing concentrations of CHIR from about D3.75 to about D6.
# [2] = system: hiPSCs; test: WNT signaling modulation from day 6 of differentiation, CD34+CD43-CD93- HE analyzed at Day 10
# Method: To optimize the efficient generation of definitive HE from hiPSCs after 10 days of directed differentiation, the effect of modulation of the WNT signaling pathway was examined. At day 6 of differentiation, cell cultures were differentiated in the presence of the GSK3 inhibitor CHIR99021, a Wnt agonist, or IWP2, a WNT inhibitor (FIG. 29A). The generation of CD34+CD43−CD93− HE was analyzed at Day 10.
# [3] = system: Day 10 CD34+CD43- cells; test: MPP differentiation of WNT modulated HE
# Method: Approximately 30,000 CD34+ HE cells were plated as a monolayer in iMPP-A media and further cultured for 6-8 days. FIG. 6A illustrates the phenotypic alterations in the monolayer cultures with the emergence of round hematopoietic cells and flow cytometric staining identifies the presence of CD45+ over the 6-8 day culture period.
# (§1) To determine the potency of the WNT modulated HE, the pan-hematopoietic and lymphoid potential of the untreated, IWP2- and CHIR99021-treated HE was each assessed. Day 10 CD34+CD43− cells were isolated by FACS and plated in MPP differentiation and iNK differentiation cultures as provided herein.
# [4] = system: Day 10 CD34+CD43- cells; test: iNK differentiation of WNT modulated HE
# Method: Specific to NK cells, upon sorting, the HE cells were cultured on low attachment tissue culture plates in iNK-A2 serum-free differentiation media containing SCF, TPO, Flt3L, IL3, IL15, and IL7 (FIG. 3). After 5 days, the cells were transferred to adherent cultures containing DLL4-expressing stromal cells in iNK-B2 differentiation media containing SCF, IL3, IL15, Flt3L and IL7 to complete NK cell differentiation. After approximately 10-15 days of culturing (post HE isolation) the cell culture was assessed for the generation of NK cell progenitors followed by mature NK subsets following an additional 10-15 days of culturing. CD56 and CD161 (NKR-P1A) are the first cell surface markers to be expressed during early NK cell development followed by the expression of CD16, KIR, CD8 and NKG2D (CD314) on later mature NK cell subsets. FIG. 11 depicts the in vitro differentiation capability of the Day 10 HE population to give rise to early NK cell progenitors and mature NK cell subsets by analysis of a CD45+ population generated in the co-cultures.
# as §1
# [5] = system: umbilical cord blood CD34+ cells; test: Stromal-free NK differentiation on plate-bound DLL4 protein, cord blood cells; details: versus stromal-based and stromal-free control cultures
# Method: Specific to NK cells, enriched umbilical cord blood CD34+ cells were plated in iNK-A2 serum-free differentiation media containing SCF, Flt3L, TPO, IL3, IL15 and IL7 in culture plates containing DLL4 protein or control protein. After 5 days the iNK-B2 medium was maintained to complete NK cell differentiation. After approximately 10-15 days of culture, the culture was assessed for the generation of NK cell progenitors and the absence of myeloid cells. CD56, CD7 and CD161 are the first cell surface markers to be expressed during NK cell development. CD11b and CD14 are cell surface markers expressed on myeloid cell subsets. FIG. 18 depicts stromal-free differentiation of umbilical cord blood CD34+ cells towards NK cells. […] Early NK lineage markers identify the presence of ipro-NK cells as defined by CD56, CD7 and CD161 and the absence of myeloid markers CD11b and CD14.
# [6] = system: Day 10 CD34+ iHE sorted cells; test: Stromal-free NK differentiation on plate-bound DLL4 protein, hiPSC-derived cells
# Excerpt: Then the hiPSC-derived CD34+ cells were differentiated towards the NK cell lineage for 20 days and then placed in suspension culture for further maturation. […] After 5 days iNK-B2 media was maintained to complete NK cell differentiation. Markers for identifying the presence of mature NK cells include CD56, CD122, NKp30, CD94, CD16, NKG2D and KIR.
# [7] = CHIR from about D3.75 to about D6
molecule,measurement,setting,value
Cc1c[nH]c(-c2cnc(NCCNc3ccc(C#N)cn3)nc2-c2ccc(Cl)cc2Cl)n1 [CHIR99021],effect of increasing concentration on percentage of the HE subpopulation,[1]; [7],decreases the percentage of the HE subpopulation
same,effect of increasing concentration on total percentage of CD34+ cells,[1]; [7],increases the total percentage of CD34+ cells
same,optimal concentration of CHIR99021 for HE subpopulation,[1]; [7],approximately 1 uM
same,number and percentage of phenotypic CD34+CD43-CD93- HE (FIG. 29B legend),[2],increased the number and the percentage
same,"HE cellularity (total HE cell number, HE proliferation)",[2]; treated from day 6,improved HE cellularity
same,percentage of CD34+CD43- cells at Day 10,[2]; treated from day 6,slight decrease
same,increase in number and percentage of phenotypic CD34+CD43-CD93- HE,"[2]; treated from day 6, Day 10",2-3 fold
same,production of CD45+ cells from the modulated HE (FIG. 30A legend),[3],increased the production of CD45+ cells
same,increased presence of CD45+ cells (hematopoietic potency),[3]; after 7 days of MPP differentiation,5-6 fold
same,production of NK progenitor cells from the modulated HE (FIG. 30B legend),[4],increased the production of NK progenitor cells
same,increased presence of CD56+CD7+ NK progenitor cells (lymphoid capacity),[4]; after 20 days of iNK differentiation,5-6 fold
Cc1ccc2nc(NC(=O)CSc3nc4c(c(=O)n3-c3ccccc3)SCC4)sc2c1 [IWP2],HE cell numbers at Day 10,[2]; treated from day 6,overall decrease in HE cell numbers
same,percentage of phenotypic HE at Day 10,[2]; treated from day 6,did not affect the percentage of phenotypic HE
"DLL4: plate-bound DLL4 protein, Notch activator",differentiation of CD56+CD7+CD161+ NK cell progenitors,[5],supports a more rapid and efficient differentiation
same,differentiation of NK cell progenitors versus myeloid cells,[6],supports the differentiation of CD56+CD7+CD161+ NK cell progenitors but not CD11b+ myeloid cells
"BMP4: bone morphogenetic protein, BMP pathway activator (protein, UniProt P12644 293-408, looked up) Bone morphogenetic protein 4: SPKHHSQRARKKNKNCRRHSLYVDFSDVGWNDWIVAPPGYQAFYCHGDCPFPLADHLNSTNHAIVQTLVNSVNSSIPKACCVPTELSAISMLYLDEYDKVVLKNYQEMVVEGCGCR",optimal concentration of BMP4 for HE population at D10,[1]; BMP4 0 ng/ml to 30 ng/ml from about D2 to about D6,about 3 ng/mL
same,effect of increasing BMP4 concentration on HE population at D10,"[1]; BMP4 from D2 to D6, below a threshold concentration",increases the HE population at D10
